Source: patent US12612416B2, “Modulators of cystic fibrosis transmembrane conductance regulator” (VERTEX PHARMACEUTICALS INCORPORATED, priority 2020, dated 2026)
Like-named read-outs stand apart in the source and are kept apart here.

Columns and labels:
[1] = amide bond, 13-membered ring, HATU/DIEA, 25.0 °C
[2] = amide bond, HATU/DIEA, DMF, 25.0 °C, 0.083 h
[3] = molecular target: T1, F508del in NIH 3T3 cells (Homo sapiens, UniProt P13569, DEL508-508); assay: 3T3 assay: membrane potential optical assay for F508del correction; assay type: cell-based, mouse; conditions: F508del NIH 3T3 cells; for EC50: compound incubation 18-24 hours at 37° C., forskolin activation; for 3T3 Max Activity: efficacy compared to lumacaftor in combination with acutely added 300 nM Ivacaftor
T1 construct: expressed in transfected cells
Source text: The assay utilizes fluorescent voltage sensing dyes to measure changes in membrane potential using a fluorescent plate reader (e.g., FLIPR III, Molecular Devices, Inc.) as a readout for increase in functional F508del in NIH 3T3 cells. The driving force for the response is the creation of a chloride ion gradient in conjunction with channel activation by a single liquid addition step after the cells have previously been treated with compounds and subsequently loaded with a voltage sensing dye.
To identify correctors of F508del, a single-addition HTS assay format was developed. This HTS assay utilizes fluorescent voltage sensing dyes to measure changes in membrane potential on the FLIPR III as a measurement for increase in gating (conductance) of F508del in F508del NIH 3T3 cells. The F508del NIH 3T3 cell cultures were incubated with the corrector compounds at a range of concentrations for 18-24 hours at 37° C., and subsequently loaded with a redistribution dye. The driving force for the response is a Cl^− ion gradient in conjunction with channel activation with forskolin in a single liquid addition step using a fluorescent plate reader such as FLIPR III.
Bath Solution #1: (in mM) NaCl 160, KCl 4.5, CaCl2) 2, MgCl2 1, HEPES 10, pH 7.4 with NaOH.
Chloride-free bath solution: Chloride salts in Bath Solution #1 (above) are substituted with gluconate salts.
NIH3T3 mouse fibroblasts stably expressing F508del are used for optical measurements of membrane potential. The cells are maintained at 37° C. in 5% CO2 and 90% humidity in Dulbecco's modified Eagle's medium supplemented with 2 mM glutamine, 10% fetal bovine serum, 1×NEAA, b-ME, 1×pen/strep, and 25 mM HEPES in 175 cm^2 culture flasks. For all optical assays, the cells were seeded at ˜20,000/well in 384-well Matrigel-coated plates. For the correction assays, the cells are cultured at 37° C. with and without compounds for 16-24 hours.

[4] = molecular target: T2, CFTR-mediated chloride transport in human intestinal epithelial enteroid cells (Homo sapiens, UniProt P13569); assay: Membrane potential dye, Enteroid Assay B; assay type: cell-based
Description: (§1) Base medium (ADF+++) consisted of Advanced DMEM/Ham's F12, 2 mM Glutamax, 10 mM HEPES, […] penicillin/streptomycin.
(§2) Intestinal enteroid maintenance medium (IEMM) consisted of ADF+++, 1×B27 supplement, 1×N2 supplement, 1.25 mM N-acetyl cysteine, 10 mM Nicotinamide, 50 ng/mL hEGF, 10 nM Gastrin, 1 μg/mL hR-spondin-1, 100 ng/mL hNoggin, TGF-b type 1 inhibitor A-83-01, 100 μg/mL Primocin, 10 μM P38 MAPK inhibitor SB202190.
(§3) Bath 1 Buffer consisted of 1 mM MgCl2, 160 mM NaCl, 4.5 mM KCl, 10 mM HEPES, 10 mM Glucose, 2 mM CaCl2).
(§4) Chloride Free Buffer consisted of 1 mM Magnesium Gluconate, 2 mM Calcium Gluconate, 4.5 mM Potassium Gluconate, 160 mM Sodium Gluconate, 10 mM HEPES, 10 mM Glucose.
(§5) BathI Dye Solution consisted of Bath 1 Buffer, 0.04% Pluronic F127, 20 μM Methyl Oxonol, 30 μM CaCCinh-A01, 30 μM Chicago Sky Blue.
(§6) Chloride Free Dye Solution consisted of Chloride Free Buffer, 0.04% Pluronic F127, 20 μM Methyl Oxonol, 30 μM CaCCinh-A01, 30 μM Chicago Sky Blue.
(§7) Chloride Free Dye Stimulation Solution consisted of Chloride Free Dye Solution, 10 μM forskolin, 100 μM IBMX, and 300 nM Compound III.
(§8) Human intestinal epithelial enteroid cells were obtained from the Hubrecht Institute for Developmental Biology and Stem Cell Research, Utrecht, The Netherlands and expanded in T-Flasks as previously described (Dekkers J F, Wiegerinck C L, de Jonge H R, Bronsveld I, Janssens H M, de Winter-de Groot K M, Brandsma A M, de Jong N W M, Bijvelds M J C, Scholte B J, Nieuwenhuis E E S, van den Brink S, Clevers H, van der Ent C K, Middendorp S and M Beekman J M. A functional CFTR assay using primary cystic fibrosis intestinal organoids. Nat Med. 2013 July; 19(7):939-45.).
(§9) Cells were recovered in cell recovery solution, collected by centrifugation at 650 rpm for 5 minutes at 4° C., resuspended in TrypLE and incubated for 5 minutes at 37° C. Cells were then collected by centrifugation at 650 rpm for 5 minutes at 4° C. and resuspended in IEMM containing 10 μM ROCK inhibitor (RI). The cell suspension was passed through a 40 μm cell strainer and resuspended at 1×10^6 cells/mL in IEMM containing 10 μM RI. Cells were seeded at 5000 cells/well into multi-well plates and incubated for overnight at 37° C., 95% humidity and 5% CO2 prior to assay.
(§10) Enteroid cells were incubated with test compound in IEMM for 18-24 hours at 37° C., 95% humidity, and 5% C02. […] Briefly, cells were washed 5 times in Bath 1 Buffer. Bath 1 Dye Solution was added and the cells were incubated for 25 minutes at room temperature. Following dye incubation, cells were washed 3 times in Chloride Free Dye Solution. Chloride transport was initiated by addition of Chloride Free Dye Stimulation Solution and the fluorescence signal was read for 15 minutes. […] Chloride transport was then expressed as a percentage of the chloride transport following treatment with 1 μM (14S)-8-[3-(2-{Dispiro[2.0.2.1]heptan-7-yl}ethoxy)-1H-pyrazol-1-yl]-12,12-dimethyl-2λ^6-thia-3,9,11,18,23-pentaazatetracyclo[17.3.1.111,14.05,10]tetracosa-1(22),5,7,9,19(23),20-hexaene-2,2,4-trione, 3 μM (R)-1-(2,2-difluorobenzo[d][1,3]dioxol-5-yl)-N-(1-(2,3-dihydroxypropyl)-6-fluoro-2-(1-hydroxy-2-methylpropan-2-yl)-1H-indol-5-yl)cyclopropanecarboxamide and 300 nM acute N-[2,4-bis(1,1-dimethylethyl)-5-hydroxyphenyl]-1,4-dihydro-4-oxoquinoline-3-carboxamide triple combination control (% Activity).

[5] = molecular target: T2, CFTR-mediated chloride transport in human intestinal epithelial enteroid cells; assay: Membrane potential dye, Enteroid Assay A; assay type: cell-based
Description: as §1, §2, §3, §4, §5, §6, §7, §8, §9
as §10, with “95% humidity” for “95% humidity,”, “was added,” for “was added”, “with 3” for “with 1”, “μM (S)—N-((6-aminopyridin-2-yl)sulfonyl)-6-(3-fluoro-5-isobutoxyphenyl)-2-(2,2,4-trimethylpyrrolidin-1-yl)nicotinamide,” for “μM (14S)-8-[3-(2-{Dispiro[2.0.2.1]heptan-7-yl}ethoxy)-1H-pyrazol-1-yl]-12,12-dimethyl-2λ^6-thia-3,9,11,18,23-pentaazatetracyclo[17.3.1.111,14.05,10]tetracosa-1(22),5,7,9,19(23),20-hexaene-2,2,4-trione,”

T2 sequence (P13569 with tags, fused parts or gaps DEL508-508): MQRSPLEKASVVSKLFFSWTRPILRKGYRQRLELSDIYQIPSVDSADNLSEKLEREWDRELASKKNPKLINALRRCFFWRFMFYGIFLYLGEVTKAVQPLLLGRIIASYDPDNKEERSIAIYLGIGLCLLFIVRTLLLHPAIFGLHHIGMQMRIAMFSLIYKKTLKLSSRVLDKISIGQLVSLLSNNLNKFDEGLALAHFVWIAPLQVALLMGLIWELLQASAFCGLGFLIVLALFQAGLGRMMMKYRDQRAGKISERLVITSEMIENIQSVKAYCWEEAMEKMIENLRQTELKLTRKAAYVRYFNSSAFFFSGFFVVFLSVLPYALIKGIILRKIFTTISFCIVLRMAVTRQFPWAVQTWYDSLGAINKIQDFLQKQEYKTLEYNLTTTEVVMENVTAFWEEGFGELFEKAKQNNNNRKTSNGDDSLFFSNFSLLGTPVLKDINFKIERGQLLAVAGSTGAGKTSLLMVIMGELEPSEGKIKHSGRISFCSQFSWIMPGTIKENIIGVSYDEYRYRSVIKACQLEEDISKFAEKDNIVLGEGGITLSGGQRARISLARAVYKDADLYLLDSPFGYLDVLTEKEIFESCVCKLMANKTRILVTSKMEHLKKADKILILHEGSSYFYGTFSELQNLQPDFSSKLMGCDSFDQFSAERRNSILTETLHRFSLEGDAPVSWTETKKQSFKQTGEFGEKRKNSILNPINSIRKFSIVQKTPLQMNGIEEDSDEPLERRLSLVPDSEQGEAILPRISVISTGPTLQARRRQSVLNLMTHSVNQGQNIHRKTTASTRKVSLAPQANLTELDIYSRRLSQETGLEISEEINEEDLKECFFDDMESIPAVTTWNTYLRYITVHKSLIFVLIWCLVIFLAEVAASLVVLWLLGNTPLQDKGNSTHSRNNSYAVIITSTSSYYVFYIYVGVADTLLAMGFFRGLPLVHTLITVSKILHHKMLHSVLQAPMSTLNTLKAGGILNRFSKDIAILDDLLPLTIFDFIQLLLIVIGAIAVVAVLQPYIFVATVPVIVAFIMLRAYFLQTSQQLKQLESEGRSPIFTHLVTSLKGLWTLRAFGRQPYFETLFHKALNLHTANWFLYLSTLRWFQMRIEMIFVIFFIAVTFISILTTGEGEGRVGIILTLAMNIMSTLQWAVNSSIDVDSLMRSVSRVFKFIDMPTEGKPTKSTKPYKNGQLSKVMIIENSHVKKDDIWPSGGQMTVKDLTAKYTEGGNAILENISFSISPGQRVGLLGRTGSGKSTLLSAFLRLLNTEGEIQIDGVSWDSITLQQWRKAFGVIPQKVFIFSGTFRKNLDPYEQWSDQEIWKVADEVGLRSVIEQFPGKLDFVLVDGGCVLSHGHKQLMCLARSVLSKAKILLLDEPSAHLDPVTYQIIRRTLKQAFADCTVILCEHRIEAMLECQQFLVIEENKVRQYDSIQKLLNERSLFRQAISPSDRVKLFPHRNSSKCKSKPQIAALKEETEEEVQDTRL
T1 sequence (P13569 with tags, fused parts or gaps DEL508-508): as above

Row | EC50 [3] | 3T3 Max Activity [3] | SMILES | also measured
1 |  |  | COC(=O)CCCN1CCC(C)c2cc(-c3c(C)cccc3C)nc(n2)NS(=O)(=O)c2cccc(c2)C1=O (centres unmarked) | ring closure, isolated yield ([1]; from COC(=O)CCCNCCC(C)c1cc(-c2c(C)cccc2C)nc(NS(=O)(=O)c2cccc(C(=O)O)c2)n1, NMP, 22.1 mM, 15.0 h): 90%
2 |  |  | Cc1cccc(C)c1-c1cc2nc(n1)NS(=O)(=O)c1cccc(c1)C(=O)N(C1CC3(CC(NC(=O)OC(C)(C)C)C3)C1)[C@H](CC(C)C)CC2 (some centres unmarked) | ring closure, isolated yield ([1]; from Cc1cccc(C)c1-c1cc(CC[C@@H](CC(C)C)NC2CC3(CC(NC(=O)OC(C)(C)C)C3)C2)nc(NS(=O)(=O)c2cccc(C(=O)O)c2)n1, NMP, 27.3 mM, 2.0 h): 88%
3 |  |  | Cc1cccc(C)c1-c1cc2nc(n1)NS(=O)(=O)c1cccc(c1)C(=O)N(C1CC3(CCN(C(=O)OC(C)(C)C)CC3)C1)[C@H](CC(C)C)CC2 | ring closure, isolated yield ([1]; from Cc1cccc(C)c1-c1cc(CC[C@@H](CC(C)C)NC2CC3(CCN(C(=O)OC(C)(C)C)CC3)C2)nc(NS(=O)(=O)c2cccc(C(=O)O)c2)n1, NMP, 97.4 mM, 2.0 h): 68%
4 | < 1000 nM | +++ (+++ is >60%) | Cc1cccc(C)c1-c1cc2nc(n1)NS(=O)(=O)c1cccc(c1)NC(=O)CCCCC2 [Compound 1, 6-(2,6-dimethylphenyl)-2,2-dioxo-2 λ6-thia-3,5,15,21-tetrazatricyclo[14.3.1.14,8]henicosa-1(20),4(21),5,7,16,18-hexaen-14-one] | ring closure, yield after HPLC ([2]; from Cc1cccc(C)c1-c1cc(CCCCCC(=O)O)nc(NS(=O)(=O)c2cccc(N)c2)n1, 15-membered ring, 33.5 mM, 2 steps): 40%
5 | 1000 to 3000 nM | +++ (+++ is >60%) | Cc1cccc(C)c1-c1cc2nc(n1)NS(=O)(=O)c1cccc(c1)NC(=O)c1cccc(c1)C2 [Compound 2, 5-(2,6-Dimethylphenyl)-9 λ6-thia-6,8,15,23-tetraazatetracyclo [15.3.1.13,7.110,14]tricosa-1(21),3(23),4,6,10,12,14(22),17,19-nonaene-9,9,16-trione] | ring closure, yield after HPLC ([2]; from Cc1cccc(C)c1-c1cc(Cc2cccc(C(=O)O)c2)nc(NS(=O)(=O)c2cccc(N)c2)n1, 14-membered ring, 86.8 mM, 3 steps): 14%
6 |  |  | Cc1cccc(C)c1-c1cc2nc(n1)NS(=O)(=O)c1cccc(c1)C(=O)NCCC2c1ccc(C(C)(C)C)cc1 (centres unmarked) [Compound 5, 9-(4-tert-Butylphenyl)-6-(2,6-dimethylphenyl)-2,2-dioxo-2 λ6-thia-3,5,12,19-tetrazatricyclo[12.3.1.14,8]nonadeca-1(18),4(19),5,7,14,16-hexaen-13-one] | ring closure, isolated yield ([1]; from Cc1cccc(C)c1-c1cc(C(CCN)c2ccc(C(C)(C)C)cc2)nc(NS(=O)(=O)c2cccc(C(=O)O)c2)n1, DMF, 11.6 mM, 21.0 h): 40%; Ent. B Max Activity ([4]; % of chloride transport of triple combination control: 1 μM (14S)-8-[3-(2-{Dispiro[2.0.2.1]heptan-7-yl}ethoxy)-1H-pyrazol-1-yl]-12,12-dimethyl-...-2,2,4-trione, 3 μM tezacaftor, 300 nM acute ivacaftor): +++ (+++ is >60%); EC50 ([4]; enteroid cells, 18-24 hours incubation, acute 10 μM forskolin and 300 nM ivacaftor, read-out: Ent. B EC50): < 1000 nM
7 | 1000 to 3000 nM | +++ (+++ is >60%) | Cc1cccc(C)c1-c1cc2nc(n1)NS(=O)(=O)c1cccc(c1)NC(=O)CCCC2 [Compound 12] | 
8 | 1000 to 3000 nM | +++ (+++ is >60%) | Cc1cccc(C)c1-c1cc2nc(n1)NS(=O)(=O)c1cccc(c1)NC(=O)CCC2 [Compound 13] | 
9 | < 1000 nM | +++ (+++ is >60%) | Cc1cccc(C)c1-c1cc2nc(n1)NS(=O)(=O)c1cccc(c1)C(=O)O[C@H](c1ccc(C(C)(C)C)cn1)[C@@H](CC(C)C)N2C [Compound 35] | Ent. A Max Activity ([5]; % of chloride transport of triple combination control: 3 μM (S)-N-((6-aminopyridin-2-yl)sulfonyl)-6-(3-fluoro-5-isobutoxyphenyl)-2-(2,2,4-trimethylpyrrolidin-1-yl)nicotinamide, 3 μM tezacaftor, 300 nM acute ivacaftor): ++ (++ is 30-60%); EC50 ([5]; enteroid cells, 18-24 hours incubation, acute 10 μM forskolin and 300 nM ivacaftor, read-out: Ent. A EC50): 1000 to 3000 nM
